Reference: patent US10640507B2, “PBD antibacterial agents” (KING'S COLLEGE LONDON, priority 2015, dated 2020)
Read-outs that look alike come from different tables or passages of the source.

How the values were obtained:
Assay type in all cases: cell-based
[1] = tested on: A. baumannii - AYE; settings: drug at 4×MIC
Description: (§1) 1. Grow bacteria overnight.
(§2) 2. Subculture into an autoclaved conical flask containing 10 ml of TSB to an OD of 0.01 (˜1×10^7 Cfu/ml for KP-M6).
(§3) 4. Take aliquots (100 μl) at timepoints (0, 1, 2, 4, 6, 24 hours) and carry out a serial dilution in PBS (to remove drug and to dilute bacteria to countable numbers).
(§4) 5. Use the serial dilution to perform a Miles Misra—i.e. Add 3×10 μl spots of each dilution onto an agar plate. Incubate overnight and count colonies on spots in the morning.
(§5) 6. Control: Subculture bacteria alongside samples but with no antibiotic added. Take aliquots from this at every time point (0, 1, 2, 4, 6, 24 hours) and perform Miles Misra on these too (as detailed in points 4 and 5 above).
(§6) 7. After the first experiment, if the counts seen on Miles-Misra were zero, total viable counts were determined by spreading 200 μl in a streak down the centre of a TSB agar plate, waiting for the liquid to be absorbed and then spreading over the plate and checking for growth inhibition at the sight of the original streak.
(§7) 8. The compound is considered bactericidal if the inoculum was reduced >3 log10 CFU/ml and bacteriostatic if inoculum was reduced by 0-3 log10 CFU/ml.
(§8) Three measurements were taken for each compound at each time point. These measurements were averaged and the standard deviation was also calculated.

[2] = tested on: A. baumannii - NCTC13424; settings: drug at 4×MIC
Description: as §1, §2, §3, §4, §5, §6, §7, §8

[3] = tested on: K. pneumonia - NCTC 13368; settings: drug at 4×MIC
Description: as §1, §2, §3, §4, §5, §6, §7, §8

[4] = tested on: K. pneumonia - NCTC 13438; settings: drug at 4×MIC
Description: as §1, §2, §3, §4, §5, §6, §7, §8

[5] = tested on: HeLa (Cervical cancer cell line); test: MTT cytotoxicity assay; settings: Homo sapiens, MTT, 24 h continuous exposure, read-out: IC50 HeLa (Cervical cancer cell line)
Description: (§9) Two immortalised human cell lines, HeLa and WI38 were used for cytotoxicity screening of the compounds. HeLa is a human cervical cancer cell line and WI38 is a normal healthy cell line. The cell lines were obtained from the American Type Culture Collection. The cell-lines were maintained in monolayer culture in 75 cm2 flasks (TPP, Switzerland) under a humidified 5% CO2 atmosphere at 37° C. The HeLa cell line was maintained in Dulbecco's Modified Eagles Media (DMEM; Invitrogen) supplemented with foetal bovine serum (10% v/v; Invitrogen), L-glutamine (2 mM; Invitrogen), non-essential amino acids (1×; Invitrogen) and Penicillin-Streptomycin (1% v/v, Invitrogen). For WI38, Eagle's Minimum Essential Medium, and Penicillin-Streptomycin (1% v/v, Invitrogen) and foetal bovine serum (10%, nvitrogen) was used. For passaging, cells were washed with phosphate buffered saline [PBS] (GIBCO 14040, Invitrogen, UK), incubated with trypsine (GIBCO 25300, Invitrogen, UK), and re-seeded into fresh medium. For seeding, cells were counted using a Neubauer haemocytometer (Assistant, Germany) by microscopy (Nikon, USA) on a non-adherent suspension of cells that were washed in PBS, trypsinised, centrifuged at 8° C. at 8000 rpm for 5 min and re-suspended in fresh medium.
(§10) The cells were grown in normal cell culture conditions at 37° C. under a 5% CO2 humidified atmosphere using appropriate medium. The cell count was adjusted to 10^5 cells/ml/ and 20,000 cells were added per well. The cells were incubated for 24 hours and 1 μl of the appropriate inhibitor concentrations were to the wells in triplicates. After 24 h of continuous exposure to each compound, the cytotoxicity was determined using the MIT (3-(4,5-Dimethylthiazol-2-yl)-2,5-diphenyltetrazolium bromide) (Lancaster Synthesis Ltd, UK) colorimetric assay. Absorbance was quantified by spectrophotometry at λ=570 nm (Envision Plate Reader, PerkinElmer, USA). IC50 values were calculated by a dose-response analysis using the Prism Graphpad Prism® software. The cytotoxicity results are shown below in Table 12.

[6] = tested on: WI38 (Healthy cell line); test: MTT cytotoxicity assay; settings: Homo sapiens, WI-38; MTT; 24 h continuous exposure; highest concentration tested 20 μM; read-out: IC50 WI38 (Healthy cell line)
Description: as §9, §10

O=C(O)c1cn(C2CC2)c2cc(N3CCNCC3)c(F)cc2c1=O [CIP, ciprofloxacin, reference compound]
Average (CFU/ml) ([1]; time-point 1 hours): 2e+06 CFU/ml | n = 1 (CFU/ml) ([1]; time-point 1 hours): 2.1e+06 CFU/ml | n = 2 (CFU/ml) ([1]; time-point 1 hours): 1.9e+06 CFU/ml | Average (CFU/ml) ([1]; time-point 2 hours): 900000 CFU/ml | n = 1 (CFU/ml) ([1]; time-point 2 hours): 1.2e+06 CFU/ml | n = 2 (CFU/ml) ([1]; time-point 2 hours): 600000 CFU/ml | Average (CFU/ml) ([1]; time-point 4 hours): 750000 CFU/ml | n = 1 (CFU/ml) ([1]; time-point 4 hours): 800000 CFU/ml | n = 2 (CFU/ml) ([1]; time-point 4 hours): 700000 CFU/ml | Average (CFU/ml) ([1]; time-point 6 hours): 2.1e+06 CFU/ml | n = 1 (CFU/ml) ([1]; time-point 6 hours): 2e+06 CFU/ml | n = 2 (CFU/ml) ([1]; time-point 6 hours): 2.2e+06 CFU/ml | n = 1 (CFU/ml) ([1]; time-point 24 hours): 7e+08 CFU/ml | n = 2 (CFU/ml) ([1]; time-point 24 hours): 1.4e+08 CFU/ml | Average (CFU/mL) ([2]; time-point 1 hours): 2.57e+06 CFU/mL | n = 1 (CFU/mL) ([2]; time-point 1 hours): 2.5e+06 CFU/mL | n = 2 (CFU/ml) ([2]; time-point 1 hours): 2.2e+06 CFU/ml | n = 3 (CFU/mL) ([2]; time-point 1 hours): 3e+06 CFU/mL | Average (CFU/mL) ([2]; time-point 2 hours): 42000 CFU/mL | n = 1 (CFU/mL) ([2]; time-point 2 hours): 80000 CFU/mL | n = 2 (CFU/ml) ([2]; time-point 2 hours): 21000 CFU/ml | n = 3 (CFU/mL) ([2]; time-point 2 hours): 25000 CFU/mL | Average (CFU/mL) ([2]; time-point 4 hours): 7330 CFU/mL | n = 1 (CFU/mL) ([2]; time-point 4 hours): 12000 CFU/mL | n = 2 (CFU/ml) ([2]; time-point 4 hours): 1000 CFU/ml | n = 3 (CFU/mL) ([2]; time-point 4 hours): 9000 CFU/mL | Average (CFU/mL) ([2]; time-point 6 hours): 11200 CFU/mL | n = 1 (CFU/mL) ([2]; time-point 6 hours): 10000 CFU/mL | n = 2 (CFU/ml) ([2]; time-point 6 hours): 14300 CFU/ml | n = 3 (CFU/mL) ([2]; time-point 6 hours): 9200 CFU/mL | n = 1 (CFU/mL) ([2]; time-point 24 hours): 3.6e+08 CFU/mL | n = 2 (CFU/ml) ([2]; time-point 24 hours): 1.9e+09 CFU/ml | n = 3 (CFU/mL) ([2]; time-point 24 hours): 2.75e+09 CFU/mL | Average (CFU/ml) ([3]; time-point 1 hours): 2.38e+06 CFU/ml | n = 2 (CFU/ml) ([3]; time-point 1 hours): 110000 CFU/ml | n = 3 (CFU/ml) ([3]; time-point 1 hours): 28000 CFU/ml | viable count ([3]; time-point 1 hours): 7e+06 CFU/mL | Average (CFU/ml) ([3]; time-point 2 hours): 118000 CFU/ml | n = 2 (CFU/ml) ([3]; time-point 2 hours): 650 CFU/ml | n = 3 (CFU/ml) ([3]; time-point 2 hours): 2500 CFU/ml | viable count ([3]; time-point 2 hours): 350000 CFU/mL | Average (CFU/ml) ([3]; time-point 4 hours): 75.3 CFU/ml | n = 2 (CFU/ml) ([3]; time-point 4 hours): 55 CFU/ml | n = 3 (CFU/ml) ([3]; time-point 4 hours): 170 CFU/ml | viable count ([3]; time-point 4 hours): 0 CFU/mL | Average (CFU/ml) ([3]; time-point 6 hours): 65.3 CFU/ml | n = 2 (CFU/ml) ([3]; time-point 6 hours): 80 CFU/ml | n = 3 (CFU/ml) ([3]; time-point 6 hours): 115 CFU/ml | viable count ([3]; time-point 6 hours): 0 CFU/mL | Average (CFU/ml) ([3]; time-point 24 hours): 0 CFU/ml | n = 2 (CFU/ml) ([3]; time-point 24 hours): 0 CFU/ml | n = 3 (CFU/ml) ([3]; time-point 24 hours): 0 CFU/ml | viable count ([3]; time-point 24 hours): 0 CFU/mL | n = 1 (CFU/ml) ([4]; time-point 1 hours): 1e+07 CFU/ml | n = 2 (CFU/ml) ([4]; time-point 1 hours): 9e+06 CFU/ml | n = 1 (CFU/ml) ([4]; time-point 2 hours): 3.8e+07 CFU/ml | n = 2 (CFU/ml) ([4]; time-point 2 hours): 3.7e+07 CFU/ml | Average (Log CFU/ml) ([4]; time-point 4 hours): 1.17E+09 Log CFU/ml | n = 1 (CFU/ml) ([4]; time-point 4 hours): 1.5e+09 CFU/ml | n = 2 (CFU/ml) ([4]; time-point 4 hours): 1e+09 CFU/ml | Average (Log CFU/ml) ([4]; time-point 6 hours): 3.07E+09 Log CFU/ml | n = 1 (CFU/ml) ([4]; time-point 6 hours): 3.9e+09 CFU/ml | n = 2 (CFU/ml) ([4]; time-point 6 hours): 2.5e+09 CFU/ml | Average (Log CFU/ml) ([4]; time-point 24 hours): 6.23E+09 Log CFU/ml | n = 1 (CFU/ml) ([4]; time-point 24 hours): 6e+09 CFU/ml | n = 2 (CFU/ml) ([4]; time-point 24 hours): 6.7e+09 CFU/ml

COc1cc2c(cc1OCCCC(=O)Nc1cc(C(=O)Nc3ccc4oc(C(=O)N5CCSCC5)cc4c3)n(C)c1)N=C[C@@H]1CCCN1C2=O [PP-A148, (S)-4-(4-((7-methoxy-5-oxo-2,3,5,11a-tetrahydro-1H-benzo-[e]pyrrolo[1,2-a][1,4]diazepin-8-yl)oxy)butanamido)-1-methyl-N-(2-(thiomorpholine-4-carbonyl)benzofuran-5-yl)-1H-pyrrole-2-carboxamide]
IC50 [5]: > 20 µM | IC50 [6]: > 20 µM
